Measurements published in US11541068B2, “HMO compositions and methods for reducing autism spectrum disorder symptoms” (Glycom A/S, priority 2017, dated 2023).

How the values were obtained:
[1] = system: faecal microbiota; experiment: M-SHIME (M-TripleSHIME) in vitro gastrointestinal model: microbiota and bacterial metabolites; assay type: cell-based, human (healthy adult); settings: proximal (PC) and distal (DC) colon reactor; means of three weekly samples
From the text: The impact of the HMOs on microbiota and bacterial metabolites was investigated in the M-SHIME® (M-TripleSHIME®) in vitro gastrointestinal model (Prodigest). The typical reactor setup of the M-TripleSHIME® consisted of a succession of four reactors simulating the different parts of the human gastrointestinal tract. The first two reactors were of the fill-and-draw principle to simulate different steps in food uptake and digestion, with peristaltic pumps adding a defined amount of SHIME feed (140 mL 3×/day) and pancreatic and bile liquid (60 ml 3×/day), respectively, to the stomach and small intestine compartment and emptying the respective reactors after specified intervals. The last two compartments were continuously stirred reactors with constant volume and pH control. […]
The M-TripleSHIME® was run in four stages: • 1. […] The baseline microbial community composition and activity in the different reactors was determined by analysis of samples and was used as a reference. • 3. […]
Sample of the liquids in each reactor were collected regularly (three times in a week, on day 1, day 3 and day 5) and were analysed for microbial metabolites and the composition of the resident microbial community. In particular, the bifidobacteria composition was analysed using ITS profiling.

[2] = system: clostridia; settings: children with regressive autism; 6-week oral course; cited from earlier work

CC(=O)N[C@H]1[C@H](O[C@H]2[C@@H](O)[C@@H](CO)O[C@@H](O[C@H]3[C@H](O)[C@@H](O)C(O)O[C@@H]3CO)[C@@H]2O)O[C@H](CO)[C@@H](O[C@@H]2O[C@H](CO)[C@H](O)[C@H](O)[C@H]2O)[C@@H]1O (mixture of isomers) [LNnT, lacto-N-neotetraose]
effect on branched SCFA and ammonia production, compared with 2′-FL (FIG. 1) [1]: similar

CN[C@H](CC(C)C)C(=O)N[C@H]1C(=O)N[C@@H](CC(N)=O)C(=O)N[C@H]2C(=O)N[C@H]3C(=O)N[C@H](C(=O)N[C@H](C(=O)O)c4cc(O)cc(O)c4-c4cc3ccc4O)[C@H](O)c3ccc(c(Cl)c3)Oc3cc2cc(c3O[C@@H]2O[C@H](CO)[C@@H](O)[C@H](O)[C@H]2O[C@H]2C[C@](C)(N)[C@H](O)[C@H](C)O2)Oc2ccc(cc2Cl)[C@H]1O [vancomycin]
children with significant improvement in neurobehavioral symptoms [2]: eight of the ten children
gastrointestinal symptoms [2]: improvement
